From US20240252496A1, “SELECTIVE HYPOTHALAMUS PERMEABLE HDAC6 INHIBITORS FORTREATMENT OF LEPTIN-RESISTANT OBESITY” (The Children’s Medical Center Corporation, priority 2022, published 2024)
Entries after “also recorded” stand apart in the source; their conditions may differ.

Tests used:
[1] = target: HDAC6 (Mus musculus (Mouse), UniProt Q9Z2V5); assay: HDAC6 inhibition in hypothalamus and other brain regions (Ac-tubulin); design: species or system mice; details: in vivo
[2] = system: diet-induced obese mice; details: cited from earlier work
[3] = cited from earlier work; for brain penetrance / BBB permeability: in words
[4] = system: HDAC6 in AgRP neurons; assay: DIO mice with HDAC6 deleted in AgRP neurons (HDAC6^Agrp-Δ); assay type: in vivo; details: chronic treatment
Description: Design, validation, and stereotaxic injection of AAV viral vector carrying the guide RNAs targeting the mouse HDAC6 genomic locus. Three designed sgRNAs were concatenated and constructed into an AAV vector carrying a cre-enabled mCherry fluorescent marker.
Following the bilateral injection of AAV-sgHDAC6 into the arcuate nucleus of Agrp-ires-cre::LSL-Cas9-GFP (Agrp-Cre^+/−::Cas9^+/−) or control LSL-Cas9-GFP (Cas9^+/−) mice, immunostaining to detect the expression of mCherry and GFP was performed. AAV-sg-HDAC6 injected Agrp-Cre^+/−::Cas9^+/− (HDAC6^Agrp-Δ) and Cas9^+/− (HDAC6^WT) DIO mice (n=7 for each group) were fasted for 24 hours, and injected with ACY775 (10 mg/kg. i.p). Hourly total dark cycle food intake (g) (n=7 for each group) of these mice after ACY775 injection was measured. Body weight of AAV-sg-HDAC6 injected HDAC6^Agrp-Δ (n=11) and HDAC6^WT (n=6) mice were measured during 3 weeks of ACY775 (10 mg/kg/day, i.p.) treatment. Daily average food intake of HDAC6^Agro-Δ (n=11) and HDAC6^WT (n=6) mice was measured during 3 weeks of ACY775 (10 mg/kg/day, i.p.) treatment. 24-hour food intake average of HDAC Agrp- and HDAC6^WT mice during the 3 weeks of ACY775 treatment was assessed. Serum leptin level (ng/ml) of HDAC6^Agrp-Δ and HDAC6^WT mice after 2 weeks of ACY775 treatment (n=13 for HDAC6^WT and n=18 for HDAC6^Agrp-Δ) was measured. Lean mass (g); fat mass; and fat percentage (%) of HDAC Agrp- and HDAC6^WT DIO mice after 3 weeks of ACY775 treatment was measured by DEXA scan. The HDAC6 inhibitor responsive neurons in the dorsomedial hypothalamus (DMH) were assessed. Immunostaining and quantification of c-Fos expression was performed in the DMH of DIO mice following one-time ACY775 treatment (10 mg/kg, i.p.).

[5] = system: HDAC6 KO mice; assay: 3-week treatment of DIO WT versus HDAC6 KO mice; assay type: in vivo; details: for body weight, HDAC6 KO vs WT DIO mice: 3 weeks i.p., ACY775 10, ACY738 50, Tubastatin A 25 mg/kg/day
[6] = Brain/plasma ratio, brain and hypothalamus penetrance; assay type: in vivo; details: in words
[7] = system: DIO mice; assay: Chronic treatment of DIO mice (body weight, food intake, leptin, DEXA); assay type: in vivo; details: for body weight effect of chronic treatment: DIO mice, 3 weeks i.p., bavarostat 10, citarinostat 25, ricolinostat 50 mg/kg; for food intake and total body fat mass: high fat diet induced mice, summary
Description: DIO mice were treated with ACY775 (10 mg/kg/day, i.p.) for 3 weeks. Daily body weight (g) of DIO mice treated with vehicle (n=17) or ACY775 (n=17) during 3 weeks of treatment was determined. Daily food intake (g) during 3 weeks of vehicle or ACY775 treatment was assessed. 24 hours' food intake per mouse during the first week of vehicle or ACY775 treatment was determined. Serum leptin (ng/ml) levels after 3 weeks of vehicle (n=24) or ACY775 (n=24) treatment was assessed. Lean mass (g), fat mass (g) and fat percentage (%) after 3 weeks of vehicle (n=17) or ACY775 (n=17) treatment measured by Dual-energy X-ray absorptiometry (DEXA) scan. DEXA scans were performed in two different cohorts. Glucose tolerance test (GTT) after 1 week of vehicle (n=33) or ACY775 (n=26) treated DIO mice was assessed. Area of curve (AOC) analysis for GTT was performed. Blood glucose (mg/dl) levels after 1 week of vehicle (n=17) or ACY775 (n=16) were assessed in treated DIO mice. Insulin tolerance test (ITT) was performed after 2 weeks of vehicle (n=31) or ACY775 (n=21) treatment of DIO mice. Serum insulin (ng/ml) levels were measured after 3 weeks of vehicle (n=22) or ACY775 (n=21) in treated DIO mice. A homeostatic model assessment of insulin resistance (HOMA-IR) was analyzed after 3 weeks of vehicle (n=14) or ACY775 (n=13) treated DIO mice.
Food intake was analyzed hourly until 3:00 am. […] DEXA scans were performed in two different cohorts.
DIO mice then were treated with ricolinostat (50 mg/kg, i.p.) for 3 weeks. Daily body weight (g), daily food intake (g), serum leptin (ng/ml) levels after 3 weeks of vehicle (n=8) or ricolinostat (n=8) treatment, lean mass (g); fat mass and fat percentage (%) after 3 weeks of vehicle (n=16) or ricolinostat (n=17) treatment measured by DEXA scan were determined.
Studies were conducted as described above with reference to ACY775.
DIO mice then were treated with bavarostat (10 mg/kg, i.p.) for 3 weeks and daily body weight (g) of DIO mice treated with Veh (n=9) or bavarostat (n=9) measured during the three weeks of treatment period. Daily food intake (g) during 3 weeks of Veh or bavarostat treatment was also measured.
ACY1083 was administered to DIO mice as described in Example 3.

[8] = 5 mg/kg i.p.; cited from earlier work
[9] = system: STAT3^Tyr705 phosphorylation; assay: Leptin-stimulated hypothalamic STAT3 phosphorylation in DIO mice; assay type: in vivo; details: leptin 1 mg/kg i.p.
Description: DIO mice were pretreated with ACY775 (10 mg/kg/day, i.p.) or vehicle for 3 days, which was followed by a last injection of ACY775 (or vehicle) in the morning of fourth day. 6 hours later mice were injected with saline or leptin (1 mg/kg, i.p.) and hypothalamus were extracted after 45 minutes following the leptin injection. Representative immunoblots for STAT3^Tyr705 phosphorylation and total STAT3 from the hypothalamus. Quantification of the ratio of p-STAT3^Tyr705 to total-STAT3 signal in the immunoblots. The results were reproduced in three independent experiments. The results were analyzed hourly.
DIO mice were pretreated with ACY775 (10 mg/kg/day, i.p.) or vehicle for 3 days, which was followed by a last injection of ACY775 (or vehicle) in the morning of fourth day. 6 hours later mice were injected with saline or leptin (1 mg/kg, i.p.) and the hypothalamus were extracted after 45 minutes following the leptin injection.
6 hours later mice were injected with saline or leptin (1 mg/kg, i.p.) and hypothalamus were extracted after 45 minutes following the leptin injection. Immunoblots for STAT3^Tyr705 phosphorylation and total STAT3 from the hypothalamus were made to quantify the ratio of p-STAT3^Tyr705 to total-STAT3 signal in the immunoblots. The results were reproduced in two independent experiments.
DIO mice were pretreated with ricolinostat (50 mg/kg/day, i.p.) or vehicle 3 days, which was followed by a last injection of ricolinostat (or vehicle) in the morning of fourth day. 6 hours later mice were injected with saline or leptin (1 mg/kg, i.p.) and the hypothalamus were extracted after 45 minutes following the leptin injection. Immunoblots were performed for STAT3^Tyr705 phosphorylation and total STAT3 from the hypothalamus. The ratio of p-STAT3^Tyr705 to total STAT3 signal in the immunoblots was quantified.

[10] = system: DIO mice; assay: Acute leptin co-treatment in DIO mice (body weight, food intake 15 h); assay type: in vivo; details: leptin 1 mg/kg i.p.
Description: DIO mice were pretreated with ACY775 (10 mg/kg/day, i.p.) or vehicle for 3 days, which was followed by co-treatment with ACY775 (or vehicle) and leptin (1 mg/kg, i.p.) (or saline) (n=9 for each group), % change in body weight 15 h after leptin treatment, food intake (g) during the 15 h period after leptin treatment. The results in were reproduced in two independent experiments.
Diet induced obese (DIO) mice were pretreated with ACY775 (10 mg/kg/day, i.p.) or vehicle for 3 days, which was followed by co-treatment with ACY775 (or vehicle) and leptin (1 mg/kg, i.p.) (or saline) (n=9 for each group). Mice were evaluated for % change in body weight 15 h after leptin treatment, and food intake (g) during the 15 h period after leptin treatment.
DIO mice were pretreated with ricolinostat (25 mg/kg/day, i.p.) or vehicle for 3 days, which was followed by co-treatment with ricolinostat (or vehicle) and leptin (1 mg/kg, i.p.) (or saline) (n=32 for each group). Change in body weight 15 h after leptin treatment, and food intake (g) during the 15 h period after leptin treatment were determined. The results were reproduced in two independent experiments.

[11] = target: HDAC6 (Homo sapiens (Human), UniProt Q9UBN7); details: cited from earlier work
Sequence of HDAC6 (Homo sapiens (Human), UniProt Q9UBN7) (Q9UBN7 whole entry, species assumed): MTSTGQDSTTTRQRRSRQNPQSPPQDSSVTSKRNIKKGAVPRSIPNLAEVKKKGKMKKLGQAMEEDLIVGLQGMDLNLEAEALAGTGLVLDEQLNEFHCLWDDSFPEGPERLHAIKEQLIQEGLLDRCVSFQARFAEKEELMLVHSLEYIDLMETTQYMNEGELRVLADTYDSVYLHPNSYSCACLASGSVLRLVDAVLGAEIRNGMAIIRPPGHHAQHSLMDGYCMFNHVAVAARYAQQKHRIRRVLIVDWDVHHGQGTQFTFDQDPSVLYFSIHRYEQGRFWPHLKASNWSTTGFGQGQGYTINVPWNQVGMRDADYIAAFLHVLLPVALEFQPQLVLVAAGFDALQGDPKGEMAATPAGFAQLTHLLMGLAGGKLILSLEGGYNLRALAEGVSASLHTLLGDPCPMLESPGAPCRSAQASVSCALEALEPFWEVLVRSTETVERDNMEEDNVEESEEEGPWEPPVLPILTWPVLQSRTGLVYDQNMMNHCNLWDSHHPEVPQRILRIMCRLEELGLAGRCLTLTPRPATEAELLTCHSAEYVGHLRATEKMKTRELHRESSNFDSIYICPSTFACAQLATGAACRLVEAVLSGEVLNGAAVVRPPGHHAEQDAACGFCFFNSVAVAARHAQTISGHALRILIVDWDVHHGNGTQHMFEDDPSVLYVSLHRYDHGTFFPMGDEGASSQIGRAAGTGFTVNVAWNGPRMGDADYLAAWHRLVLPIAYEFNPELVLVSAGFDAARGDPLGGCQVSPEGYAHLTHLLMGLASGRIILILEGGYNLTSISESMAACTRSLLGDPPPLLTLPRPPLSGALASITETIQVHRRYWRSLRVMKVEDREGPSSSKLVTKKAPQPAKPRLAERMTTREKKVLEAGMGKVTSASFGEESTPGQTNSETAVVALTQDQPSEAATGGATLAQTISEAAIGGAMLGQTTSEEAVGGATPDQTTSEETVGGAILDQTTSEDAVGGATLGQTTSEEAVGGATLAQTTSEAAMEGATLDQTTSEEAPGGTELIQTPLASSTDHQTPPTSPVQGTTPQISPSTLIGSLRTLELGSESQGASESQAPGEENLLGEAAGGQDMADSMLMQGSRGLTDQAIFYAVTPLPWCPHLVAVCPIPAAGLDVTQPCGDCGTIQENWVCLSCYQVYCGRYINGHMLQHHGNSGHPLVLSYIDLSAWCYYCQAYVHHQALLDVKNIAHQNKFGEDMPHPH

[12] = system: DIO mice; assay: Chronic treatment of DIO mice (body weight, food intake, leptin, DEXA); assay type: in vivo; details: oral administration

Sequence of HDAC6 (Mus musculus (Mouse), UniProt Q9Z2V5) (Q9Z2V5 whole entry): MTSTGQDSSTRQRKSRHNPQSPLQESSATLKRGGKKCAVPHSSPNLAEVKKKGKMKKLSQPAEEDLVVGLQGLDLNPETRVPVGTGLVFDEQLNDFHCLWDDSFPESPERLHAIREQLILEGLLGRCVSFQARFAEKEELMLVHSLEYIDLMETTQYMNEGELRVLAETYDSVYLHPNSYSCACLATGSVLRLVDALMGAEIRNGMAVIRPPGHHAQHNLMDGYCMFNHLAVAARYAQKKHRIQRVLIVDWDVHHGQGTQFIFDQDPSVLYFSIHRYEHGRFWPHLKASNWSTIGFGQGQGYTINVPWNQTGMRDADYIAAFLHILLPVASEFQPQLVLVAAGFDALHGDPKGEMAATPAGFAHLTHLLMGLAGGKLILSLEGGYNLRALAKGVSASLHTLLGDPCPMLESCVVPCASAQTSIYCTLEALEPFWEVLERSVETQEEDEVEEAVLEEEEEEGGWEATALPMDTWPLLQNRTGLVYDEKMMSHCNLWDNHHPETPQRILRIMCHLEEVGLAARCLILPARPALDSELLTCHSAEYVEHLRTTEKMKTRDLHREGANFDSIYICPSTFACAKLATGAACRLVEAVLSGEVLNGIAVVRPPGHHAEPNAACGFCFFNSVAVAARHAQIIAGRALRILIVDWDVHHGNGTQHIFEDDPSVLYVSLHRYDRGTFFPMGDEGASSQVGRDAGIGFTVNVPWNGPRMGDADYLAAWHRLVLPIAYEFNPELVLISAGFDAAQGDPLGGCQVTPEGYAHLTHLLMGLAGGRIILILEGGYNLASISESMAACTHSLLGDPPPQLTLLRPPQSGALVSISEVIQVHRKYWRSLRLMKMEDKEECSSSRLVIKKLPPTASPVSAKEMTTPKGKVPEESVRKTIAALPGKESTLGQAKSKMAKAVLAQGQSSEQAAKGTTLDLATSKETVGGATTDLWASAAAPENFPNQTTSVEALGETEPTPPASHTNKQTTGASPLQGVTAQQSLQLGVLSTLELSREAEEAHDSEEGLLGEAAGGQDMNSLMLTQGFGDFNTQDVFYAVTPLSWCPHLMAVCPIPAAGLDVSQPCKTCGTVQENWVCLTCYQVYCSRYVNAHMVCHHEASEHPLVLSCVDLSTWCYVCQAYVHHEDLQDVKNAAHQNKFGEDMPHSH

Molecule	HDAC6 inhibition in the hypothalamus [1]	brain penetrance / BBB permeability [3]	body weight, HDAC6 KO vs WT DIO mice [5]	penetrance into the hypothalamus [6]	HDAC6 inhibition in other brain regions (cerebrum, frontal lobe, temporal lobe, brainstem) [1]	body weight effect of chronic treatment [7]	food intake and total body fat mass [7]	further results
CN1CCc2c(c3ccccc3n2Cc2ccc(C(=O)NO)cc2)C1 [Tubastatin A]	nor show HDAC6 inhibition in the hypothalamus	extremely low	reduced the body weight of the HDAC6 KO mice the same as the wt mice	neither of which have high penetrance into the hypothalamus	–	–	–	anti-obesity effects reported by Cakir et al. [2]: reduce food intake, fat mass, hepatic steatosis and improve systemic glucose homeostasis; also recorded: attenuated in animals with a defective central leptin-melanocortin circuitry; brain/plasma ratio ([3]; in vivo): 0.18; anti-obesity effects in HDAC6^Agrp-Δ vs HDAC6^WT DIO mice [4]: did not change Tubastatin A's effects on suppressing feeding or body weight; fat mass and fat %, HDAC6 KO vs WT ([5]; DEXA): significantly lower in both wt and HDAC6 KO groups; lean mass, HDAC6 KO vs WT ([5]; DEXA): not different; blood glucose, serum insulin and leptin levels, HDAC6 KO vs WT ([5]; mouse, in vivo): reduced equally in the wt and HDAC6 KO group; food intake, HDAC6 KO vs WT DIO mice ([5]; mouse, in vivo): reduced similarly; glucose tolerance and insulin sensitivity (GTT, ITT), HDAC6 KO vs WT ([5]; mouse, in vivo): improved glucose tolerance and increased insulin sensitivity in both wt and the HDAC6 KO mice
CC1CCC(C(C)(C2CCC(C)CC2)C2CCC(C(C)C(C)CCCCC(C)C(C)C)CC2)CC1 (centres unmarked) [ACY257]	inhibits HDAC6 in the hypothalamus	limited brain expression	–	high penetrance into the arctuate nucleus of the hypothalamus	does not inhibit HDAC6 in other brain regions	as effective as ACY775 in reducing body weight; also recorded: Significant weight loss; also recorded: as effective as ACY775 in lowering body weight	significant reduction of food intake and total body fat mass	body weight effect of chronic treatment ([7]; listed as ACY 257): greatly reduces body weight; AUC Brain/AUC Plasma Ratio ([3]; in vivo): 0.01; Cmax [8]: 1047 ng/mL; Plasma AUClast [8]: 871 (5 mg/kg i.p.) hr*ng/ml; T1/2 [8]: 8.15 h
leptin: peptide hormone, product of the obese (ob) gene	–	–	–	–	–	–	–	hypothalamic STAT3^Tyr705 phosphorylation, leptin in vehicle-treated mice [9]: did not significantly increase STAT3^Tyr705 phosphorylation; body weight, leptin alone [10]: did not significantly alter their bodyweight; also recorded: did not change their bodyweight; food intake, leptin alone [10]: did not significantly change the food intake
O=C(CCCCCCNC(=O)c1cnc(N(c2ccccc2)c2ccccc2Cl)nc1)NO [Citarinostat]	not in the hypothalamus	good brain penetrance	–	–	inhibits HDAC6 in other brain regions	not effective in reducing body weight	–	HDAC6 inhibition in the hypothalamus ([1]; listed as citarinostat): does not show HDAC6 inhibition in the AGP neurons in the hypothalamus; body weight effect of chronic treatment ([7]; listed as citarinostat): ineffective weight lowering effect
O=C(NO)c1cnc(NC2(c3ccccc3)CCC(F)(F)CC2)nc1 [ACY1083]	–	brain-penetrating	–	–	–	–	significant reduction of food intake and total body fat mass	selectivity for HDAC6 than all other classes of HDAC isoforms [11]: 260 fold; body weight over 14 days [12]: significant decrease in body weight; also recorded: Significant weight loss; also recorded: reduced body weight
CN(Cc1ccc(C(=O)NO)cc1F)CC12CC3CC(CC(C3)C1)C2 [Bavarostat, 4-(((((3r,5r,7r)-adamantan-1-yl)methyl)(methyl)amino)methyl)-3-fluoro-N-hydroxybenzamide]	–	high brain penetrance	treatment of wild type mice but not HDAC6 Knockout animals with bavarostat caused weight loss	high penetrance of the hypothalamus	–	Significant weight loss; also recorded: statistically significantly effective in reducing food intake and body weight	significant reduction of food intake and total body fat mass	–
